# Legend:
# male beagle dogs = assay: Effect of combination with pravastatin on plasma total cholesterol levels in dogs; assay type: in vivo, dog
# Description: The effect of the combination of the compounds described in Example with pravastatin (HMG-CoA reductase inhibitor) on plasma cholesterol levels in dogs was examined.
# To male beagle dogs (supplied from Kitayama Labes, body weight 9 to 13 kg), usual solid feedstuff (DS-A: Oriental Yeast Co., Ltd.) was given once daily at 13:00 to 14:00. The light was turned on from 7:00 to 19:00 as a light period, and the remaining was defined as a dark period. Water was given ad libitum. In the morning in the week prior to the administration, the blood was collected with heparin from forearm cephalic vein, and plasma was collected by centrifugation. The total cholesterol level of this plasma was measured using the commercially available cholesterol level measurement kit by the enzymatic method (Cholesterol-E Test Wako). The dogs were grouped so that the total cholesterol levels were almost equal. Sodium pravastatin (1 mg/kg, Sankyo) alone or 3 mg/kg of the compound described in each of Examples alone or the combination thereof was orally administered once daily just before feeding for 7 days. Pravastatin was dissolved in distilled water, and the compound described in Example was suspended in 0.5% methylcellulose solution for administration. On the day after the final administration, the blood was collected from the forearm cephalic vein under starving, to which plasma was obtained. The total cholesterol level therein was measured by the same way. As a result, the total cholesterol level in the plasma was reduced by 7 mg/dL (6%) by orally administering 1 mg/kg/day of pravastatin for 7 days. The total cholesterol level in the plasma was reduced by […] (3 to 8%) by orally administering 3 mg/kg/day of the compound described in each of Examples for 7 days. When pravastatin and the compound described in each of Examples were co-administered at this dosages, the total cholesterol in the plasma was reduced by 14 to 24 mg/dL (12 to 20%). The reduction rate of the total cholesterol level was larger in the co-administration with the compound described in Example than in the administration of pravastatin alone, and the augmented effect by the co-administration was observed.
# Caco-2 cells = assay: Facilitation effect on permeability of combined compound (pravastatin, atorvastatin) through Caco-2 cells
# Description: The permeability through Caco-2 cells was measured by the same way as in Test Example 15.
# It was examined whether the permeability coefficient of the combined compound was changed in the presence of the compound described in Examples or the compound in Comparative Examples.
# [1] = pravastatin 1 mg/kg alone, oral once daily for 7 days, vehicle 1
smiles,measurement,setting,value
"CC[C@H](C)C(=O)O[C@H]1C[C@H](O)C=C2C=C[C@H](C)[C@H](CC[C@@H](O)C[C@@H](O)CC(=O)O)[C@H]21 [pravastatin, reference compound]",plasma total cholesterol BEFORE TREATMENT,"male beagle dogs; pravastatin 1 mg/kg alone group, baseline, N=4, mean±standard error",114 ± 6 mg/dL
same,plasma total cholesterol AFTER TREATMENT,"male beagle dogs; pravastatin 1 mg/kg alone, oral once daily for 7 days, N=4, mean±standard error",106 ± 5 mg/dL
same,plasma total cholesterol BEFORE TREATMENT − AFTER TREATMENT,male beagle dogs; [1],7 mg/dL
same,reduction rate with respect to the data before administration (number in parenthesis),male beagle dogs; [1],6
same,total cholesterol level in the plasma reduced by,"male beagle dogs; pravastatin alone 1 mg/kg/day oral, 7 days",7 mg/dL
same,"total cholesterol level in the plasma, reduction rate","male beagle dogs; pravastatin alone 1 mg/kg/day oral, 7 days, with respect to before administration",6%
same,RATE OF INCREASE (%),Caco-2 cells; statin alone (reference = 100),100%
same,[…] (PERMEATION × 10^−6 cm/s),"Caco-2 cells; statin alone, 25 μM, 37° C., 2 hours",0.33 × 10^−6 cm/s

# From patent publication US20120015925A1, “NOVEL BENZOTHIAZEPINE AND BENZOTHIEPINE COMPOUNDS” (ASAHI KASEI PHARMA CORPORATION, priority 2004, published 2012)
